We go through one compound from ChEMBL document CHEMBL5120927, “LEGO-Lipophosphonoxins: A Novel Approach in Designing Membrane Targeting Antimicrobials” (J Med Chem, 2022).

The structures appear in SMILES notation. Active and inactive are the calls of the source. No cut-off for these calls is given here.

The subject of data set [1] is Staphylococcus aureus. In words: Antibacterial activity against Staphylococcus aureus ATCC 29213 = CCM 4223 assessed as inhibition of bacterial growth incubated for 24 hrs by microdilution assay. The data set is classed as functional.
Another data set relates to Escherichia coli. As to the kind of experiment: Antibacterial activity against Escherichia coli ATCC 25922 = CCM 3954 assessed as inhibition of bacterial growth incubated for 24 hrs in presence of BSA by microdilution assay. In kind it is functional.
In the next data set the test system is Enterococcus faecium. As to the kind of experiment: Antibacterial activity against vancomycin resistant Enterococcus faecium 419/ANA assessed as reduction in microbial growth incubated for 24 hrs by microdilution assay. In kind it is functional.
For data set [2], the system named is Staphylococcus aureus. As to the kind of experiment: Antibacterial activity against […] Staphylococcus aureus 4463/A assessed as reduction in microbial growth incubated for 24 hrs by microdilution assay. In kind it is functional.
Data set [3] concerns Staphylococcus aureus. As to the kind of experiment: Antibacterial activity against wild type Staphylococcus aureus 4502/A assessed as reduction in microbial growth incubated for 24 hrs by microdilution assay. The data set is classed as functional.
Data set [4] relates to Staphylococcus aureus. In words: Antibacterial activity against wild type Staphylococcus aureus 5079/C assessed as reduction in microbial growth incubated for 24 hrs by microdilution assay. In kind it is functional.
Data set [5] has as its system Cell membrane. In words: Induction of cell envelope damage in Staphylococcus aureus assessed as loss of cytoplasmic content at 8 mg/L measured after 8 hrs by scanning electron microscope analysis. The data set is classed as subcellular.
Data set [6] relates to Cell membrane. In words: Induction of cell envelope damage in Staphylococcus aureus assessed as tubular structure at 8 mg/L measured after 8 hrs by scanning electron microscope analysis.
Data set [7] has as its system Cell membrane. As to the kind of experiment: Induction of plasma membrane depolarization in Escherichia coli CCM 3954 assessed as increase in fluorescence intensity at 2.5 mg/L measured after 80 seconds by DiSC3-5 dye based spectrofluorometer method. The data set is classed as cell membranes. The following applies: time 80.0 sec.
Data set [8] in a line: Toxicity in rabbit assessed as skin irritation at 100 to 200 mg/L after administration bandaged for 4 hrs and measured after 1 to 72 hrs of contact time. Also on record: species or system Oryctolagus cuniculus. The conditions noted are these: in vivo, topical_or_ocular, dose lower 100 mg/L, time lower 1 hrs, dose upper 200 mg/L, time upper 76 hrs.
Data set [9] deals with Staphylococcus aureus. In words: microbe, parasite or virus in culture. The conditions noted are these: 4862/C, 24 h.
Description: Antibacterial activity against wild type Staphylococcus aureus 4862/C assessed as reduction in microbial growth incubated for 24 hrs by microdilution assay
In data set [10] the test system is Staphylococcus aureus. As to the kind of experiment: microbe, parasite or virus in culture. The following applies: 4880/C, 24 h.
Description: Antibacterial activity against wild type Staphylococcus aureus 4880/C assessed as reduction in microbial growth incubated for 24 hrs by microdilution assay

Take `CCCCCCCCOP(=O)(CCN(CCCN)CCCN)OCCCCCCOP(=O)(CCN(CCCN)CCCN)OCCCCCCCC.Cl.Cl.Cl.Cl.Cl.Cl` (configuration not stated): the MIC in the data set with Staphylococcus aureus [1] was 0.5 µg/mL; with Escherichia coli it was 0.5 µg/mL; with Enterococcus faecium, 8 µg/mL; with Staphylococcus aureus [2], 1 µg/mL; in the data set on Staphylococcus aureus [3], 1 µg/mL; in the data set with Staphylococcus aureus [4], 0.5 µg/mL. Further, the MIC in the data set with Staphylococcus aureus [9] and in the data set with Staphylococcus aureus [10] was 0.5 µg/mL each time. The result in the data set with Cell membrane [5], with Cell membrane [6] and in the data set with Cell membrane [7] was Active. In [8], the Activity entry is listed as “Non-Toxic”.
